We go through nine compounds from patent publication US20250235460A1, “COMBINATION THERAPY USING GLUCOSE-DEPENDENT INSULINOTROPIC POLYPEPTIDE RECEPTOR ANTAGONIST COMPOUNDS AND GLP-1 RECEPTOR AGONIST COMPOUNDS” (Pfizer Inc., priority 2024, published 2025).

In assay [1] the target is human GLP-1R (Homo sapiens, UniProt P43220, G168S). In words: CHO GLP-1R Clone H6 cAMP HTRF agonist assay (Assay 1, high receptor density). Type of assay: cell-based. To be noted: for EC50: CHO GLP-1R clone H6, cAMP HTRF, geometric mean; for Emax: CHO GLP-1R clone H6, arithmetic mean, relative to saturating GLP-1 (1 μM), read-out: Assay 1 Emax (%). In outline: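 From replicate determinations, mean EC50 (geometric) and mean Emax (arithmetic) were derived and expressed to two significant figures.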
For orientation: In TR-FRET formats the signal depends on donor and acceptor labels being close together.

The target in assay [2] is human GLP-1R (Homo sapiens, UniProt P43220, L260F). In words: CHO GLP-1R Clone C6 cAMP HTRF agonist assay (Assay 2, low receptor density). To be noted: for EC50: geometric mean; for Emax: CHO GLP-1R clone C6, arithmetic mean, relative to saturating GLP-1 (1 μM). Type of assay: cell-based. From the text: In Table 5 and Table 6, assay data are presented to two (2) significant figures as the geometric mean (EC50s) and arithmetic mean (Emax) based on the number of replicates listed (Number). A blank cell means there was no data for that Example or the Emax was not calculated.

Usually EC50 stands for the concentration that produces a half-maximal response. High values mean lower potency in that assay, low ones higher potency in that assay. Broadly, the Emax is the size of the effect at its maximum, as opposed to the concentration needed.

human GLP-1R (Homo sapiens, UniProt P43220, L260F), sequence (P43220 24-463 L260F): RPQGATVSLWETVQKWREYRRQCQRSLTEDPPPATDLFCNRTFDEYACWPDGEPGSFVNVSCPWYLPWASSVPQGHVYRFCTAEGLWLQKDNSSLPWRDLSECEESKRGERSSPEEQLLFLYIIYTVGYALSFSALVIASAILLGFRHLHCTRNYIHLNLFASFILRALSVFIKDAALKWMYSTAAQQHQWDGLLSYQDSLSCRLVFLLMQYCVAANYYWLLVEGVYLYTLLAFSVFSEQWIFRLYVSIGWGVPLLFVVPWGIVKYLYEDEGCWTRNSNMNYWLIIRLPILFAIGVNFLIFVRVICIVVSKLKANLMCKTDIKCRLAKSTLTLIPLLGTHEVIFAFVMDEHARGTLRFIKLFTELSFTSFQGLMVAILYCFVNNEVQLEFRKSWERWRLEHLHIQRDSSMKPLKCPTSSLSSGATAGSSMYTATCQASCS
human GLP-1R (Homo sapiens, UniProt P43220, G168S), sequence (P43220 24-463 G168S): as the sequence (P43220 24-463 L260F) above, with G145S, F237L counted along it

For `O=C(O)c1ccc2nc(CN3CCC(c4cccc(OCc5ccc(Cl)cc5F)n4)CC3)n(Cc3ncco3)c2n1` [Compound 167B, 2-[(4-{6-[(4-chloro-2-fluorobenzyl)oxy]pyridin-2-yl}piperidin-1-yl)methyl]-3-(1,3-oxazol-2-ylmethyl)-3H-imidazo[4,5-b]pyridine-5-carboxylic acid], the EC50 was determined as 18 nM at human GLP-1R [1] and 350 nM on human GLP-1R [2] (CHO GLP-1R clone C6, cAMP HTRF). The Emax at human GLP-1R [1] came to 84%; on human GLP-1R [2], 77%.
`COCCn1c(CN2CCC(c3cccc(OCc4ccc(Cl)cc4F)n3)CC2)nc2cnc(C(=O)O)cc21` [Compound 205B, 2-[(4-{6-[(4-chloro-2-fluorobenzyl)oxy]pyridin-2-yl}piperidin-1-yl)methyl]-1-(2-methoxyethyl)-1H-imidazo[4,5-c]pyridine-6-carboxylic acid]: the 50% effective concentration (EC50) on human GLP-1R [1] came out at 5.7 nM; on human GLP-1R [2] (CHO GLP-1R clone C6, cAMP HTRF), 100 nM. Moreover, the values for the Emax on human GLP-1R [1] and on human GLP-1R [2] were 67% and 79%, respectively.
As for `CCn1cnnc1Cn1c(CN2CCC(c3cccc(OCc4ccc(Cl)cc4F)n3)CC2)nc2ccc(C(=O)O)cc21` [Compound 237B, 2-[(4-{6-[(4-chloro-2-fluorobenzyl)oxy]pyridin-2-yl}piperidin-1-yl)methyl]-1-[(4-ethyl-4H-1,2,4-triazol-3-yl)methyl]-1H-benzimidazole-6-carboxylic acid], the EC50 on human GLP-1R [1] was found to be 3.2 nM; at human GLP-1R [2] (CHO GLP-1R clone C6, cAMP HTRF), 39 nM. Moreover, the figures for the Emax at human GLP-1R [1] and on human GLP-1R [2] were 68% and 88%, respectively.
The like results for `CO[C@@H]1CCC[C@@H]1Cn1c(CN2CCC(c3cccc(OCc4ccc(Cl)cc4F)n3)CC2)nc2ccc(C(=O)O)cc21` (racemic) [Compound 196B, rac-2-[(4-{6-[(4-chloro-2-fluorobenzyl)oxy]pyridin-2-yl}piperidin-1-yl)methyl]-1-{[(1S,2S)-2-methoxycyclopentyl]methyl}-1H-benzimidazole-6-carboxylic acid] were, in that order, 4.1 nM, 170 nM, 67% and 75%.
The corresponding values for `O=C(O)c1ccc2nc(CN3CCC(c4cccc(OCc5ccc(Cl)cc5F)n4)CC3)n(Cc3n[nH]c(C4CC4)n3)c2c1` [Compound 339B, 2-[(4-{6-[(4-chloro-2-fluorobenzyl)oxy]pyridin-2-yl}piperidin-1-yl)methyl]-1-[(5-cyclopropyl-1H-1,2,4-triazol-3-yl)methyl]-1H-benzimidazole-6-carboxylic acid] are 36 nM, 1600 nM, 71% and 82%.
Compound `N#Cc1ccc(COc2cccc(C3CCN(Cc4nc5ccc(C(=O)O)cc5n4C[C@@H]4CCOC4)CC3)n2)c(F)c1` [Compound 126B, 2-[(4-{6-[(4-cyano-2-fluorobenzyl)oxy]pyridin-2-yl}piperidin-1-yl)methyl]-1-[(3S)-tetrahydrofuran-3-ylmethyl]-1H-benzimidazole-6-carboxylic acid] displayed an Emax on human GLP-1R [2] of 90%.
Same read-out and setting: as for `N#Cc1ccc(COc2nc(C3CCN(Cc4nc5ccc(C(=O)O)cc5n4C[C@H]4CCCO4)CC3)ccc2F)cc1` [Compound 129B, 2-[(4-{6-[(4-cyanobenzyl)oxy]-5-fluoropyridin-2-yl}piperidin-1-yl)methyl]-1-[(2R)-tetrahydrofuran-2-ylmethyl]-1H-benzimidazole-6-carboxylic acid], the figure is 98%.
In turn, `N#Cc1ccc(COc2nc(C3CCN(Cc4nc5ccc(C(=O)O)cc5n4C[C@@H]4CCCO4)CC3)ccc2F)cc1` [Compound 128B, 2-[(4-{6-[(4-cyanobenzyl)oxy]-5-fluoropyridin-2-yl}piperidin-1-yl)methyl]-1-[(2S)-tetrahydrofuran-2-ylmethyl]-1H-benzimidazole-6-carboxylic acid] registered an Emax on human GLP-1R [2] of 86%.
Compound `O=C(O)c1ccc2nc(CN3CCC(c4cccc5c4O[C@H](c4ccc(Cl)cc4F)O5)CC3)n(C[C@@H]3CCO3)c2c1` [Compound 4B, Ammonium 2-({4-[(2R)-2-(4-chloro-2-fluorophenyl)-1,3-benzodioxol-4-yl]piperidin-1-yl}methyl)-1-[(2S)-oxetan-2-ylmethyl]-1H-benzimidazole-6-carboxylate] had an EC50 on human GLP-1R [2] (CHO GLP-1R clone, low receptor density, cAMP HTRF) of over 20000 nM.
